According to a melting point compilation (Tetko et al.; mined from patent text by program, amines drawn as free bases though some values may be those of a salt):

| Compound | melting point |
| --- | --- |
| CCC1(CC)OC(=S)Nc2ccc(-c3cccc(Cl)c3)cc21 | 148 to 150 °C |
| Nc1ccc(-c2ccncc2)cc1[N+](=O)[O-] | 234 to 238 °C |
| CCNC(=O)Nc1nc2nc(NCCCN(C)C)ncc2cc1-c1c(C)cccc1C | 64 to 70 °C |
| COC(=O)CNc1cccc(Br)c1 | 66 to 68 °C |
| CC(=O)Nc1ccc(OCCN2CC=C(c3ccc(F)cc3)CC2)cc1 | 96 to 98 °C |
| COc1c(C(=O)Nc2ccc(N(C(C)=O)S(C)(=O)=O)cc2)cc(N2CCC(=O)NC2=O)cc1C(C)(C)C | 228 to 229 °C |
| CC(=O)Oc1ccc(P(c2ccccc2)c2ccc(OC(C)=O)cc2)cc1 | 118 to 120 °C |
| O=C(O)c1ccc(F)c(F)c1Nc1ccc(I)cc1Cl | 226 to 227 °C |
| COc1cc(Nc2c(C#N)cnc3cc(OCC(C)(C)CN(C)C)c(OC)cc23)c(Cl)cc1Cl | 178 to 180 °C |
| CCCCCC(=O)NS(=O)(=O)CCc1cc(OCCCC)nn1Cc1ccc(Cl)cc1Cl | 90 to 92 °C |
| Cn1nc(-c2c(F)cccc2Cl)nc1-c1cccc([N+](=O)[O-])c1Cl | 112 to 114 °C |
| COC(=O)NN=Cc1ccc(Oc2ccc(F)cc2)cc1 | 109 to 111 °C |
| COC(=O)c1cc(Br)c(C=O)o1 | 83 to 84 °C |
| COCCc1nc2c(N)nc3c(c2n1CCCCNS(=O)(=O)c1ccc(F)cc1)CCCC3 | 191 to 193 °C |
| Cc1cc(-c2ccc(C#N)cc2)c(C)n1Cc1cnc(Cl)c(COC(=O)CCC(=O)O)c1 | 201 to 204 °C |
| Nc1[nH]ncc1-c1cccc(N2CCOCC2)c1 | 166 to 168 °C |
| O=C1c2ccccc2C(=O)N1CCCCSc1nccc(NC(=S)NCC(F)(F)F)n1 | 201 to 202 °C |
| CCc1cn2ccccc2c1S(=O)(=O)c1ccc(OS(=O)(=O)c2ccc(C)cc2)cc1 | 190 °C |
| Cc1cc(C)cc(Sc2c(C(C)C)c(=O)[nH]c(=O)n2CC2=CCC(CO)C2)c1 (centres undefined) | 147 to 148 °C |
| CC(C)c1ccc(C(=O)NCCOc2ccc(C(=O)O)cc2)cc1 | 202 to 203 °C |
| CN(C)c1ccc(NC(=O)N(Cc2ccccc2)C[C@H]2CC[C@H](CN(Cc3ccccc3)C(=O)Nc3ccc(N(C)C)cc3)CC2)cc1 | 142 to 144 °C |
| Cn1c(-c2cccs2)cnc1[C@H](Cc1ccccn1)N(C=O)c1cc2cc(Cl)ccc2o1 | 70 to 74 °C |
| CCc1cccc(C)c1CNc1nc(C(=O)N(C)C)cc2[nH]c(C)nc12 | 207 to 208 °C |

| Compound | melting point |
| --- | --- |
| OCCOCC(O)c1ccc2sccc2c1 (centres undefined) | 119 to 120 °C |
| COc1cc(CSCCNC(=O)c2c(Cl)cccc2Cl)cc(OC)c1 | 46 to 47 °C |
| CC1(C)CC(S(=O)(=O)Cc2c(C(F)(F)F)nn(C(F)F)c2Cl)=NO1 | 126 to 127 °C |
| CC(C)C(=O)OCCn1nc(-c2cc(C(C)(C)C)c(O)c(C(C)(C)C)c2)c2cccnc21 | 94 to 96 °C |
| CCc1nn(CC(=O)NN)c(CC)c1Oc1cc(Cl)cc(Cl)c1 | > 250 °C |
| COc1cc(C(=O)N[C@@H]2CCN(C)C2)ccc1Nc1ncc2c(n1)N(C1CCCCC1)CC(F)(F)C(=O)N2C | 98 to 99 °C |
| c1ccc(N2c3ccccc3Sc3ccccc32)nc1 | 107 to 109 °C |
| CCc1[nH]c2ccc(OC)cc2c1C=O | 211 to 212 °C |
| COc1c(C(C)(C)C)cc(N2CCCC2=O)cc1C(C)(C)C | 90 to 91 °C |
| COc1cc(Br)c(OC)c(C=O)c1 | 62 to 64 °C |
| CNC(=O)Nc1ccc(OCCNCC(O)c2ccc(O)cc2)cc1 (centres undefined) | 155 to 160 °C |
| O=C(NC1CC1)c1cccc(-c2ccc3c(c2)C(Oc2ccc(Cl)cc2Cl)CC3)c1 (centres undefined) | 179 to 180 °C |
| CCN(c1cc(Cl)c(Cl)cc1Cl)C(C(=O)O)c1ccccc1OC (centres undefined) | 92.7 °C |
| c1cc2c(cc1C1CCC3(CC1)OCCO3)OCO2 | 115 to 116 °C |
| CCC(CC)c1ccc(Cl)c2[nH]c(=O)n(C)c12 | 165 to 166 °C |
| Cn1ncc(CCC(=O)O)c1-c1ccc(Cl)cc1 | 138 to 140 °C |
| COCc1cc(N(C)C)ncn1 | 42 to 44 °C |
| OCCOCc1nnc2n1-c1ccc(Cl)cc1C(c1ccccc1)=NC2 | 162 to 164 °C |
| Cn1cc(C(=O)C(=O)N2CCN(c3nc4cc(C(=O)Nc5nc(C(C)(C)C)cs5)ccn4c(=O)c3/C=C/C(=O)O)CC2)nc1N | 210 to 216 °C |
| CCOC(=O)CCc1ccc(N2CCN(c3ccc(C(=N)NC(=O)OCC)cc3)C2=O)cc1 | > 335 °C |
| Cc1sc2c(c1C)C(=O)NS2(=O)=O | 187 °C |
| CCCCc1nc(Cl)c(CO)n1Cc1ccc2oc(-c3ccccc3-c3nnn[nH]3)c(Br)c2c1 | 193 to 197 °C |
| CC12CCC(=O)C=C1CCC1C2CCC2(C)C1CCC2(OC=O)C(=O)CCl (centres undefined) | 202 °C |

| Compound | melting point |
| --- | --- |
| COc1ccc(C(=O)NC(=S)Nc2ccccc2C(N)=O)cc1 | 193 to 196 °C |
| CC(C)(C)OC(=O)c1cc(Cl)nc(Cl)c1 | 79 to 81 °C |
| CCCCc1nc2c(N)nc3ccccc3c2n1CCCCSc1ccccc1 | 118 to 120 °C |
| COc1cc(CC(C#N)C(OC)OC)cc(OC)c1Cl (centres undefined) | 84 °C |
| O=Cc1cc(O)ccc1-c1cccnc1 | 182 to 184 °C |
| CC(C)(C)c1cc(-c2noc(=O)[nH]2)cc(C(C)(C)C)c1O | 189 to 191 °C |
| CCn1nc(C(F)(F)F)c(C(=O)O)c1Cl | 164 to 166 °C |
| COC(=O)C1=Cc2cc(-c3ccc(N4CCOCC4)cc3)ccc2S(=O)(=O)CC1 | 215 to 217 °C |
| COc1cc(Nc2nccc(Nc3ccc(O)cc3)n2)cc(OC)c1OC | 112 to 115 °C |
| NS(=O)(=O)c1ccc(-c2coc(=O)n2-c2ccc(F)cc2)cc1 | 211 to 213 °C |
| CS(=O)(=O)NCCNc1ccc([N+](=O)[O-])cc1 | 154 °C |
| O=C1NC2CCC1NC2=O | 275 to 277 °C |
| CCOC(=O)C(=CNc1ccc(F)cc1F)C(=O)c1c(F)cc(Cl)c(F)c1Cl | 84 to 86 °C |
| CN(C)S(=O)(=O)c1ccc2c(c1)S(=O)(=O)NC1CCCN21 (centres undefined) | 240 to 243 °C |
| COC(=O)c1ccccc1S(=O)(=O)NC(=O)n1nc(Oc2ccccc2)n(C)c1=O | 161 °C |
| CCOC(=O)C(=O)Nc1cc(C(F)(F)F)cc(C(F)(F)F)c1[N+](=O)[O-] | 115 °C |
| COCOc1ccccc1-c1cc(-c2cccc(C(=O)OC)c2)c(C#N)c(NC(=O)c2cccs2)n1 | 159 to 160 °C |
| CC1CC(=O)NN=C1c1ccc(NC(=O)C2CC2)cc1 (centres undefined) | 267 to 268 °C |
| CC(Oc1ccc(Oc2cnc3cc(F)ccc3n2)cc1)C(=O)Nc1ccc(OC(F)(F)F)cc1 (centres undefined) | 140 to 142 °C |
| CCCCc1ncc(/C=C(\Cc2ccc(C)s2)c2nnn[nH]2)n1Cc1ccccc1Cl | 151 to 153 °C |
| CCC(=O)Nc1nc2cccc(C)c2c(=O)o1 | 108 to 109 °C |

Continued, values first:

| melting point | Compound |
| --- | --- |
| 196 to 197 °C | CCOC(=O)c1ccc(N2CCN(Cc3c[nH]c4ncccc34)CC2)cc1 |
| 130 °C | Oc1ccc2c(c1)SCCc1c-2n(CCCCCN2CCCCC2)c2ccccc12 |
| 104 to 106 °C | N#Cc1cc(C(F)(F)F)n(Cc2ccccc2)c1-c1ccc(Cl)cc1 |
| 115 to 117 °C | CSc1ccc(C[C@H](CO)NC(=O)OCc2ccccc2)cc1 |
| 85 to 90 °C | CN1CCOC(CN2C(=O)C3(COc4cc5c(cc43)OCCO5)c3ccccc32)C1 (centres undefined) |
| 115 to 116 °C | CN1CCN(C(=O)c2ccc(CCc3cc4cc(C#N)ccc4o3)cc2)CC1 |
| 162 to 164 °C | CN(CCOc1ccc(CC(Oc2ccc3ccccc3c2)C(=O)O)cc1)c1nc2ccccc2o1 (centres undefined) |
| 132 to 134 °C | COC1C(OC(=O)c2ccccc2)C(COC(=O)c2ccccc2)OC1n1ccc(=O)[nH]c1=O (centres undefined) |
| 164 °C | COc1ccc2cc(C(=O)CCC(=O)c3ccccc3)ccc2c1 |
| 215 to 218 °C | O=C(O)Cc1c(C(=O)c2cccc(Br)c2)[nH]c2cc(Cl)ccc12 |
| 166 to 167 °C | O=C(O)CN(c1ccccc1)S(=O)(=O)c1ccccc1 |
| 197 to 200 °C | O=C1Nc2cccnc2N(C(=O)CN2CCN(CCO)CC2)c2ccccc21 |
| 137 °C | O[C@H]1COC(c2ccc3c(c2)OCO3)=N[C@@H]1c1ccccc1 (racemic) |
| 227 to 229 °C | O=C(O)c1cc(-c2ccc([N+](=O)[O-])cc2)c(-c2ccc(F)cc2)s1 |
| 295 to 300 °C | Cc1ccc2c(c1)C(O)(c1ccccc1Cl)C(=O)N2 (centres undefined) |
| 108 to 110 °C | COc1ccc(C(=O)c2c[nH]c(Cc3ccccc3)n2)cc1 |

| melting point | Compound |
| --- | --- |
| 154 °C | O=C(CBr)c1ccc(Cl)c(S(=O)(=O)Nc2ccccc2)c1 |
| 142 to 143 °C | COc1cccc(C(CNC(=O)Cc2c(Cl)cncc2Cl)c2ccccc2)c1 (centres undefined) |
| 203 to 204 °C | O=C(CCl)Nc1ccc2c(c1NC(=O)c1ccccc1)C(=O)c1ccccc1C2=O |
| 271 °C | Cc1ccc(NS(=O)(=O)c2ccc(-c3cnc4[nH]c(CCC5CCCCC(=S)N5)nc4c3)cc2)c(F)c1 (centres undefined) |
| 168 to 170 °C | CC1(C)CCN(Cc2ccc(COc3cccc4c3CN(C3CCC(=O)NC3=O)C4=O)cc2)CC1 (centres undefined) |
| 103 to 104 °C | OC1(c2ccc(Cl)cc2)c2cc(Cl)c(Cl)cc2CCC1Br (centres undefined) |
| 76 to 77 °C | CC1(C)COCC(=O)N1NCc1ccccc1 |
| 180 to 182 °C | O=C(O)c1cc2ccccc2cc1NC(=O)C(CS)Cc1ccccc1 (centres undefined) |
| > 250 °C | O=c1c(-c2ccccc2O)coc2cc(O)c(Cl)cc12 |
| 94 °C | O=C(O)CCc1ccccc1CNC(=O)C1Cc2ccccc2N1S(=O)(=O)c1ccc(-c2cccc(C(F)(F)F)c2)cc1 (centres undefined) |
| 220 °C | O=C(N[C@H]1CC[C@H](CCN2CCC(c3cccc4c3CCO4)CC2)CC1)c1ccccc1 |
| 155 to 158 °C | O=C1NC(=O)C(Cc2ccc3c(c2)CCCN3Cc2ccccc2)S1 (centres undefined) |
| 99 to 101 °C | Nc1ccccc1C(=O)c1ccc(OCc2ccccc2)cc1 |
| 150 °C | O=c1[nH]c(=O)n(COc2ccccc2)cc1F |
| 115 °C | CCN(CC)C(=O)CCc1nc(-c2cccc(C(F)(F)F)c2)nc2ccccc12 |
| 270 to 272 °C | O=C(O)c1cccc(-c2cc(-c3ccc(F)cc3)[nH]n2)c1 |
